Test results: the CheMixHub viscosity set

Test: xn = mol fraction of the nth substance listed

O=[N+]([O-])c1ccccc1 + CCCO
viscosity [mPa·s], 101.33 kPa
Details	x1 = 0.0517	x1 = 0.1088	x1 = 0.173	x1 = 0.2456	x1 = 0.3276	x1 = 0.4224	x1 = 0.5322	x1 = 0.6613	x1 = 0.8145
298.15 K	1.815	1.725	1.606	1.56	1.511	1.49	1.478	1.494	1.55
303.15 K	1.613	1.558	1.455	1.394	1.402	1.363	1.341	1.352	1.431

CCCCCCCCCCCCCC + CCCOC(C)=O
298.15 K, 101.33 kPa
Details	viscosity [mPa·s]
x1 = 0.066	0.605
x1 = 0.0941	0.632
x1 = 0.1299	0.673
x1 = 0.1877	0.734
x1 = 0.2573	0.815
x1 = 0.3129	0.88
x1 = 0.4379	1.045
x1 = 0.5495	1.204
x1 = 0.6576	1.369
x1 = 0.8073	1.631
x1 = 0.8924	1.814

CCCCCCC + CCO
Details	viscosity [mPa·s]
293.15 K, 101 kPa, x1 = 0.1005	0.9853
293.15 K, 101 kPa, x1 = 0.202	0.8256
293.15 K, 101 kPa, x1 = 0.3022	0.7149
293.15 K, 101 kPa, x1 = 0.4016	0.6285
293.15 K, 101 kPa, x1 = 0.5079	0.567
293.15 K, 101 kPa, x1 = 0.5967	0.516
293.15 K, 101 kPa, x1 = 0.7041	0.4658
293.15 K, 101 kPa, x1 = 0.8008	0.4428
293.15 K, 101 kPa, x1 = 0.8935	0.423
298.15 K, 100 kPa, x1 = 0.0472	1.002
298.15 K, 100 kPa, x1 = 0.1004	0.9149
298.15 K, 100 kPa, x1 = 0.199	0.7776
298.15 K, 100 kPa, x1 = 0.3003	0.6663
298.15 K, 100 kPa, x1 = 0.3994	0.5825
298.15 K, 100 kPa, x1 = 0.507	0.5154
298.15 K, 100 kPa, x1 = 0.5988	0.4742
298.15 K, 100 kPa, x1 = 0.6751	0.449
298.15 K, 100 kPa, x1 = 0.7394	0.4327
298.15 K, 100 kPa, x1 = 0.8085	0.4191
298.15 K, 100 kPa, x1 = 0.9003	0.4048
298.15 K, 101 kPa, x1 = 0.1005	0.9069
298.15 K, 101 kPa, x1 = 0.202	0.7656
298.15 K, 101 kPa, x1 = 0.3022	0.6673
298.15 K, 101 kPa, x1 = 0.4016	0.5856
298.15 K, 101 kPa, x1 = 0.5079	0.5214
298.15 K, 101 kPa, x1 = 0.5967	0.4815
298.15 K, 101 kPa, x1 = 0.7041	0.4422
298.15 K, 101 kPa, x1 = 0.8008	0.4149
298.15 K, 101 kPa, x1 = 0.8935	0.4021
298.15 K, 101.33 kPa, x2 = 0.0831	0.413
298.15 K, 101.33 kPa, x2 = 0.1075	0.394
298.15 K, 101.33 kPa, x2 = 0.1985	0.426
298.15 K, 101.33 kPa, x2 = 0.1999	0.408
298.15 K, 101.33 kPa, x2 = 0.2981	0.444
298.15 K, 101.33 kPa, x2 = 0.3001	0.433
298.15 K, 101.33 kPa, x2 = 0.3932	0.465
298.15 K, 101.33 kPa, x2 = 0.4315	0.487
298.15 K, 101.33 kPa, x2 = 0.5009	0.517
298.15 K, 101.33 kPa, x2 = 0.5079	0.521
298.15 K, 101.33 kPa, x2 = 0.5973	0.584
298.15 K, 101.33 kPa, x2 = 0.6092	0.584
298.15 K, 101.33 kPa, x2 = 0.7009	0.653
298.15 K, 101.33 kPa, x2 = 0.7209	0.69
298.15 K, 101.33 kPa, x2 = 0.8165	0.766
298.15 K, 101.33 kPa, x2 = 0.8241	0.808
298.15 K, 101.33 kPa, x2 = 0.9	0.883
298.15 K, 101.33 kPa, x2 = 0.907	0.922
298.15 K, 101.33 kPa, x2 = 0.9744	1.039
303 K, 101.33 kPa, x2 = 0.3521	0.43
303 K, 101.33 kPa, x2 = 0.5917	0.566
303 K, 101.33 kPa, x2 = 0.7654	0.698
303 K, 101.33 kPa, x2 = 0.8969	0.863
303.15 K, 101 kPa, x1 = 0.1005	0.8186
303.15 K, 101 kPa, x1 = 0.202	0.695
303.15 K, 101 kPa, x1 = 0.3022	0.6164
303.15 K, 101 kPa, x1 = 0.4016	0.5429
303.15 K, 101 kPa, x1 = 0.5079	0.4865
303.15 K, 101 kPa, x1 = 0.5967	0.4506
303.15 K, 101 kPa, x1 = 0.7041	0.4154
303.15 K, 101 kPa, x1 = 0.8008	0.3953
303.15 K, 101 kPa, x1 = 0.8935	0.3827
308.15 K, 101 kPa, x1 = 0.1005	0.7535
308.15 K, 101 kPa, x1 = 0.202	0.6432
308.15 K, 101 kPa, x1 = 0.3022	0.5695
308.15 K, 101 kPa, x1 = 0.4016	0.5077
308.15 K, 101 kPa, x1 = 0.5079	0.4521
308.15 K, 101 kPa, x1 = 0.5967	0.4271
308.15 K, 101 kPa, x1 = 0.7041	0.3957
308.15 K, 101 kPa, x1 = 0.8008	0.3691
308.15 K, 101 kPa, x1 = 0.8935	0.3633
313 K, 101.33 kPa, x2 = 0.3521	0.38
313 K, 101.33 kPa, x2 = 0.5917	0.483
313 K, 101.33 kPa, x2 = 0.7654	0.587
313 K, 101.33 kPa, x2 = 0.8969	0.719
323 K, 101.33 kPa, x2 = 0.3521	0.337
323 K, 101.33 kPa, x2 = 0.5917	0.417
323 K, 101.33 kPa, x2 = 0.7654	0.5
323 K, 101.33 kPa, x2 = 0.8969	0.606

CCCCCCCC + CCO
298.15 K, 101.33 kPa
Details	viscosity [mPa·s]
x2 = 0.0986	0.523
x2 = 0.2153	0.533
x2 = 0.3204	0.557
x2 = 0.4431	0.603
x2 = 0.6117	0.686
x2 = 0.7378	0.779
x2 = 0.8362	0.873
x2 = 0.9134	0.973
x2 = 0.9773	1.071

CN(C)C=O + CCO
viscosity [mPa·s], 101 kPa
Details	293.15 K	298.15 K	303.15 K	313.15 K	323.15 K
x1 = 0.3863	–	0.881	–	–	–
x1 = 0.5	–	–	0.758	0.649	0.563
x2 = 0.0999	0.871	0.819	0.77	0.682	0.61
x2 = 0.2	0.876	0.818	0.767	0.68	0.604
x2 = 0.3	0.882	0.822	0.77	0.681	0.603
x2 = 0.4	0.881	0.821	0.767	0.674	0.596
x2 = 0.5001	0.872	0.813	0.759	0.668	0.592
x2 = 0.6	0.886	0.825	0.769	0.67	0.59
x2 = 0.7	0.919	0.852	0.791	0.685	0.598
x2 = 0.8	0.97	0.897	0.828	0.712	0.616
x2 = 0.9001	1.067	0.977	0.897	0.762	0.651

COCC(C)O (configuration not stated) + CCO
viscosity [mPa·s], 101.33 kPa
Details	298.15 K	308.15 K	318.15 K
x1 = 0.0501	1.128	0.933	0.779
x1 = 0.1	1.174	0.964	0.801
x1 = 0.15	1.215	0.994	0.822
x1 = 0.2	1.253	1.025	0.846
x1 = 0.25	1.297	1.055	0.866
x1 = 0.3003	1.333	1.081	0.887
x1 = 0.35	1.369	1.111	0.909
x1 = 0.3999	1.405	1.138	0.928
x1 = 0.45	1.44	1.163	0.947
x1 = 0.5	1.477	1.188	0.964
x1 = 0.5498	1.508	1.211	0.979
x1 = 0.5998	1.537	1.23	0.991
x1 = 0.6498	1.564	1.245	1.004
x1 = 0.7	1.589	1.263	1.017
x1 = 0.75	1.61	1.275	1.029
x1 = 0.8002	1.629	1.289	1.038
x1 = 0.8498	1.647	1.3	1.048
x1 = 0.8999	1.665	1.308	1.058
x1 = 0.9499	1.677	1.318	1.068
